Results published in PubChem BioAssay AID2060885 (Molecular Pharmacology Branch, DTP, NCI, 2025).
pIC50: −log10 of the molar value.

Tested on: NCI-H23 complex spheroids with HUVEC/MSC, viability
Assay: Anticancer human tumor NCI-H23 cell line growth inhibition [RAS];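 further: spheroids exposed to compound for 7 days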;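 on viability, T/C: 100% = DMSO vehicle control viability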
Settings: for pIC50: curve of first compound; for viability, T/C: stronger effect = lower value
How it was run: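 Tumour cells grown as complex spheroids with HUVEC endothelial cells and mesenchymal stem cells, treated with RAS pathway inhibitor combinations. Each agent spans half-log steps from near clinical Cmax, or 10 microM where Cmax is unknown.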

[1] = second compound 0.00316 µM, first compound 0.0316 µM
[2] = second compound 0.00316 µM, first compound 0.1 µM
[3] = second compound 0.00316 µM, first compound 0.316 µM
[4] = second compound 0.00316 µM, first compound 1 µM
[5] = second compound 0.00316 µM, first compound 3.16 µM
[6] = second compound 0.00316 µM, first compound 10 µM
[7] = second compound 0.01 µM, first compound 0.0316 µM
[8] = second compound 0.01 µM, first compound 0.1 µM
[9] = second compound 0.01 µM, first compound 0.316 µM
[10] = second compound 0.01 µM, first compound 1 µM
[11] = second compound 0.01 µM, first compound 3.16 µM
[12] = second compound 0.01 µM, first compound 10 µM
[13] = second compound 0.0316 µM, first compound 0.0316 µM
[14] = second compound 0.0316 µM, first compound 0.1 µM
[15] = second compound 0.0316 µM, first compound 0.316 µM
[16] = second compound 0.0316 µM, first compound 1 µM
[17] = second compound 0.0316 µM, first compound 3.16 µM
[18] = second compound 0.0316 µM, first compound 10 µM
[19] = second compound 0.1 µM, first compound 0.0316 µM
[20] = second compound 0.1 µM, first compound 0.1 µM
[21] = second compound 0.1 µM, first compound 0.316 µM
[22] = second compound 0.1 µM, first compound 1 µM
[23] = second compound 0.1 µM, first compound 3.16 µM
[24] = second compound 0.1 µM, first compound 10 µM
[25] = second compound 0.316 µM, first compound 0.0316 µM
[26] = second compound 0.316 µM, first compound 0.1 µM
[27] = second compound 0.316 µM, first compound 0.316 µM
[28] = second compound 0.316 µM, first compound 1 µM
[29] = second compound 0.316 µM, first compound 3.16 µM
[30] = second compound 0.316 µM, first compound 10 µM
[31] = second compound 1 µM, first compound 0.0316 µM
[32] = second compound 1 µM, first compound 0.1 µM
[33] = second compound 1 µM, first compound 0.316 µM
[34] = second compound 1 µM, first compound 1 µM
[35] = second compound 1 µM, first compound 3.16 µM
[36] = second compound 1 µM, first compound 10 µM

CC(=O)OC12COC1CC(O)C1(C)C(=O)C(O)C3=C(C)C(OC(=O)C(O)C(NC(=O)OC(C)(C)C)c4ccccc4)CC(O)(C(OC(=O)c4ccccc4)C21)C3(C)C (centres undefined) + C=CC(=O)N1CCN(c2nc(OCC3CCCN3C)nc3c(F)c(-c4nc(N)cc(C)c4C(F)(F)F)c(Cl)cc23)C(C)C1
pIC50 (second compound 0.00316 µM): > 7.50
pIC50 (second compound 0.01 µM): > 7.50
pIC50 (second compound 0.0316 µM): > 7.50
pIC50 (second compound 0.1 µM): > 7.50
pIC50 (second compound 0.316 µM): > 7.50
pIC50 (second compound 1 µM): > 7.50
viability, T/C [1]: 12.9%
viability, T/C [2]: 17%
viability, T/C [3]: 17.9%
viability, T/C [4]: 16.9%
viability, T/C [5]: 25.1%
viability, T/C [6]: 41.9%
viability, T/C [7]: 14.2%
viability, T/C [8]: 17.6%
viability, T/C [9]: 13.1%
viability, T/C [10]: 18.7%
viability, T/C [11]: 19.1%
viability, T/C [12]: 28.7%
viability, T/C [13]: 15.5%
viability, T/C [14]: 17.1%
viability, T/C [15]: 15.6%
viability, T/C [16]: 15.9%
viability, T/C [17]: 23.9%
viability, T/C [18]: 26.2%
viability, T/C [19]: 12.4%
viability, T/C [20]: 15.2%
viability, T/C [21]: 11.8%
viability, T/C [22]: 14.9%
viability, T/C [23]: 22.8%
viability, T/C [24]: 22.1%
viability, T/C [25]: 11.1%
viability, T/C [26]: 13.9%
viability, T/C [27]: 14.3%
viability, T/C [28]: 16.3%
viability, T/C [29]: 18.9%
viability, T/C [30]: 26.8%
viability, T/C [31]: 11.8%
viability, T/C [32]: 14.7%
viability, T/C [33]: 14.4%
viability, T/C [34]: 15.4%
viability, T/C [35]: 21.5%
viability, T/C [36]: 20.9%

CCC(CC)c1cc(NC2CCC(N)C2)n2nccc2n1 (centres undefined) + C=CC(=O)N1CCN(c2nc(OCC3CCCN3C)nc3c(F)c(-c4nc(N)cc(C)c4C(F)(F)F)c(Cl)cc23)C(C)C1
pIC50 (second compound 0.00316 µM): 6.00
pIC50 (second compound 0.01 µM): 6.25
pIC50 (second compound 0.0316 µM): > 7.50
pIC50 (second compound 0.1 µM): > 7.50
pIC50 (second compound 0.316 µM): > 7.50
pIC50 (second compound 1 µM): > 7.50
viability, T/C [1]: 64.8%
viability, T/C [2]: 75.2%
viability, T/C [3]: 57.1%
viability, T/C [4]: 51.4%
viability, T/C [5]: 5.05%
viability, T/C [6]: 0.45%
viability, T/C [7]: 52.7%
viability, T/C [8]: 62.7%
viability, T/C [9]: 55.2%
viability, T/C [10]: 43.2%
viability, T/C [11]: 4.13%
viability, T/C [12]: 0.6%
viability, T/C [13]: 44.7%
viability, T/C [14]: 47.1%
viability, T/C [15]: 42.9%
viability, T/C [16]: 36.5%
viability, T/C [17]: 3.39%
viability, T/C [18]: 0.5%
viability, T/C [19]: 39.3%
viability, T/C [20]: 50.3%
viability, T/C [21]: 38.7%
viability, T/C [22]: 36.5%
viability, T/C [23]: 2.7%
viability, T/C [24]: 0.48%
viability, T/C [25]: 36.2%
viability, T/C [26]: 37.8%
viability, T/C [27]: 39.9%
viability, T/C [28]: 36.7%
viability, T/C [29]: 4.1%
viability, T/C [30]: 0.41%
viability, T/C [31]: 34.6%
viability, T/C [32]: 42.8%
viability, T/C [33]: 41.1%
viability, T/C [34]: 38.5%
viability, T/C [35]: 4.68%
viability, T/C [36]: 0.53%
